Tested on: human colon carcinoma HCT15 cells
Assay: Cell proliferation, HCT15 (Example 4)
Format: cell-based
Conditions: HCT-15, HCT15, colon cancer, compound in 2-hydroxypropyl-β-cyclodextrin
Experimental: Human ovary cancer A2780 cells lines were seeded at a density of 5000 cells/well, human melanoma A375 cells were plated at a density of 2,500 cells/well, human colon carcinoma HCT15 cells were plated at a density of 3,000 cells/well, human prostate carcinoma PC3 cells were plated at a density of 1,500 cells/well, human breast carcinoma MCF7 cells were plated at a density of 5,000 cells/well, human breast carcinoma MDA MB 468 cells were plated at a density of 6,000 cells/well, human myeloma U266, RPMI8226 and CAG cells were plated at a density of 10,000 cells/well. All cells were plated in 96-well plates in 90 μl growth medium containing 10% FCS, 100 units/ml penicillin and 100 μg/ml streptomycin. Compound 3 was added a day later in […] of 1% DMSO in DDW to obtain final concentrations of 0, 0.1, 0.3, 1, 3, and 10 μM. The final concentration of DMSO (0.1% DMSO) was kept constant in all samples. […] The optical density values were read at 630 nm in ELISA plate reader. Non-adhered cells were exposed to WST-1 reagent for 5 hours following 72 hours treatment with the inhibitors, and optical density values were read at 630 nm in ELISA plate reader. The data was analyzed in Microsoft Excel, using the vehicle control as 100% proliferation. […]

| Structure (SMILES) | IC50 |
| --- | --- |
| O=c1c(O)cc2cnc(/C=C/c3cc(O)c(O)c(Br)c3)sc-2c1O [Compound 3] | 700 nM |
| O=c1c(O)cc2cnc(/C=C/c3ccc(O)c(O)c3Br)sc-2c1O [Compound 5] | 900 nM |

Reference: patent publication US9073880B2, “2-(2-phenylethenyl) 1,3-benzodiazepine derivatives useful for the treatment of cancer” (Yissum Research Development Company of the Hebrew …, priority 2010, dated 2015)
